Measurements published in ChEMBL document CHEMBL4382243, “The synthesis of 4-arylamido-2-arylaminoprimidines as potent EGFR T790M/L858R inhibitors for NSCLC” (Bioorg Med Chem, 2018).
The source made the active and inactive calls. The rule behind the calls is not given here.

Columns and labels:
cells = type: ADME, cell-based; settings: Homo sapiens, NHBE, 72 h
Description: Antiproliferative activity against NHBE cells after 72 hrs by MTT assay

NCI-H1975 [1] = experiment: Antiproliferative activity against human NCI-H1975 cells harboring EGFR T790M/L858R double mutant after 72 hrs by MTT assay; type: functional, cell-based; settings: NCI-H1975, 72 h
ASPC1 = experiment: cells; type: functional, cell-based; settings: Homo sapiens, ASPC1, 72 h;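 also: growth inhibition of the cells quantified with an MTT readout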
Description: Antiproliferative activity against human Aspc-1 cells after 72 hrs by MTT assay

[2] = target: Epidermal growth factor receptor (Homo sapiens, UniProt P00533); type: ADME, cell-based, Sf9
Description: Inhibition of wild-type human N-terminal GST-tagged EGFR (695 to end residues) expressed in baculovirus infected Sf9 insect cells using Poly (4:1 Glu, Tyr) as substrate after 60 mins in presence of ATP by ADP-Glo assay

A-431 = experiment: cells; type: ADME, cell-based; settings: Homo sapiens, A-431, 72 h;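 also: growth inhibition of A-431 cells expressing wild-type EGFR, read out by MTT assay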
Description: Antiproliferative activity against human A431 cells harboring wild-type EGFR after 72 hrs by MTT assay

A549 = experiment: cells; type: functional, cell-based; settings: Homo sapiens, A549, 72 h
Description: Antiproliferative activity against human A549 cells after 72 hrs by MTT assay

NCI-H23 = experiment: Antiproliferative activity against human NCI-H23 cells after 72 hrs by MTT assay; type: functional, cell-based; settings: NCI-H23, 72 h
[3] = target: Epidermal growth factor receptor (Homo sapiens, UniProt P00533, L858R/T790M); type: cell-based, Sf9
NCI-H1975 [4] = experiment: Antiproliferative activity against human NCI-H1975 cells harboring EGFR T790M/L858R double mutant assessed as cell viability at 0.1 uM after 72 hrs by MTT assay (reference value: 98.3%); type: functional; settings: for viability at 0.1 µM: Homo sapiens, NCI-H1975, 72 h, read-out: Activity
NCI-H1975 [5] = experiment: Antiproliferative activity against human NCI-H1975 cells harboring EGFR T790M/L858R double mutant assessed as cell viability at 1 uM after 48 hrs by MTT assay (reference value: 98.3%); type: functional; settings: for viability at 1 µM: Homo sapiens, NCI-H1975, 48 h, read-out: Activity
NCI-H1975 [6] = experiment: Antiproliferative activity against human NCI-H1975 cells harboring EGFR T790M/L858R double mutant assessed as cell viability at 10 uM after 48 hrs by MTT assay (reference value: 98.3%); type: functional; settings: for viability at 10 µM: Homo sapiens, NCI-H1975, 48 h, read-out: Activity
NCI-H1975 [7] = experiment: Antiproliferative activity against human NCI-H1975 cells harboring EGFR T790M/L858R double mutant assessed as cell viability at 1 uM after 72 hrs by MTT assay (reference value: 98.3%); type: functional; settings: for viability at 1 µM: Homo sapiens, NCI-H1975, 72 h, read-out: Activity
NCI-H1975 [8] = experiment: Antiproliferative activity against human NCI-H1975 cells harboring EGFR T790M/L858R double mutant assessed as cell viability at 10 uM after 72 hrs by MTT assay (reference value: 98.3%); type: functional; settings: for viability at 10 µM: Homo sapiens, NCI-H1975, 72 h, read-out: Activity
NCI-H1975 [9] = experiment: Antiproliferative activity against human NCI-H1975 cells harboring EGFR T790M/L858R double mutant assessed as cell viability at 10 uM after 24 hrs by MTT assay (reference value: 98.3%); type: functional; settings: for viability at 10 µM: Homo sapiens, NCI-H1975, 24 h, read-out: Activity
NCI-H1975 [10] = experiment: Antiproliferative activity against human NCI-H1975 cells harboring EGFR T790M/L858R double mutant assessed as cell viability at 0.1 uM after 48 hrs by MTT assay (reference value: 98.3%); type: functional; settings: for viability at 0.1 µM: Homo sapiens, NCI-H1975, 48 h, read-out: Activity
NCI-H1975 [11] = experiment: Antiproliferative activity against human NCI-H1975 cells harboring EGFR T790M/L858R double mutant assessed as cell viability at 1 uM after 24 hrs by MTT assay (reference value: 98.3%); type: functional; settings: for viability at 1 µM: Homo sapiens, NCI-H1975, 24 h, read-out: Activity
NCI-H1975 [12] = experiment: Antiproliferative activity against human NCI-H1975 cells harboring EGFR T790M/L858R double mutant assessed as cell viability at 0.1 uM after 24 hrs by MTT assay (reference value: 98.3%); type: functional; settings: for viability at 0.1 µM: Homo sapiens, NCI-H1975, 24 h, read-out: Activity
NCI-H1975 [13] = experiment: Induction of apoptosis in human NCI-H1975 cells harboring EGFR T790M/L858R double mutant assessed as nuclear condensation at 1 to 20 uM after 72 hrs by DAPI staining based fluorescent microscopic analysis; type: functional, cell-based
NCI-H1975 [14] = experiment: Antimigratory activity against human NCI-H1975 cells at 5 to 10 uM up to 48 hrs by wound healing assay; type: functional, cell-based
NCI-H1975 [15] = experiment: Induction of apoptosis in human NCI-H1975 cells harboring EGFR T790M/L858R double mutant assessed as membrane blebbing at 1 to 20 uM after 72 hrs by DAPI staining based fluorescent microscopic analysis; type: functional, cell-based
NCI-H1975 [16] = experiment: Antiproliferative activity against human NCI-H1975 cells harboring EGFR T790M/L858R double mutant at 1 to 20 uM after 72 hrs by acridine orange/ethidium bromide staining based fluorescent microscopic analysis; type: functional, cell-based
NCI-H1975 [17] = experiment: Induction of apoptosis in human NCI-H1975 cells harboring EGFR T790M/L858R double mutant assessed as apoptotic body formation at 1 to 20 uM after 72 hrs by DAPI staining based fluorescent microscopic analysis; type: functional, cell-based

Sequence of Epidermal growth factor receptor (Homo sapiens, UniProt P00533, L858R/T790M) (P00533 25-1210 T790M/L858R limits assumed): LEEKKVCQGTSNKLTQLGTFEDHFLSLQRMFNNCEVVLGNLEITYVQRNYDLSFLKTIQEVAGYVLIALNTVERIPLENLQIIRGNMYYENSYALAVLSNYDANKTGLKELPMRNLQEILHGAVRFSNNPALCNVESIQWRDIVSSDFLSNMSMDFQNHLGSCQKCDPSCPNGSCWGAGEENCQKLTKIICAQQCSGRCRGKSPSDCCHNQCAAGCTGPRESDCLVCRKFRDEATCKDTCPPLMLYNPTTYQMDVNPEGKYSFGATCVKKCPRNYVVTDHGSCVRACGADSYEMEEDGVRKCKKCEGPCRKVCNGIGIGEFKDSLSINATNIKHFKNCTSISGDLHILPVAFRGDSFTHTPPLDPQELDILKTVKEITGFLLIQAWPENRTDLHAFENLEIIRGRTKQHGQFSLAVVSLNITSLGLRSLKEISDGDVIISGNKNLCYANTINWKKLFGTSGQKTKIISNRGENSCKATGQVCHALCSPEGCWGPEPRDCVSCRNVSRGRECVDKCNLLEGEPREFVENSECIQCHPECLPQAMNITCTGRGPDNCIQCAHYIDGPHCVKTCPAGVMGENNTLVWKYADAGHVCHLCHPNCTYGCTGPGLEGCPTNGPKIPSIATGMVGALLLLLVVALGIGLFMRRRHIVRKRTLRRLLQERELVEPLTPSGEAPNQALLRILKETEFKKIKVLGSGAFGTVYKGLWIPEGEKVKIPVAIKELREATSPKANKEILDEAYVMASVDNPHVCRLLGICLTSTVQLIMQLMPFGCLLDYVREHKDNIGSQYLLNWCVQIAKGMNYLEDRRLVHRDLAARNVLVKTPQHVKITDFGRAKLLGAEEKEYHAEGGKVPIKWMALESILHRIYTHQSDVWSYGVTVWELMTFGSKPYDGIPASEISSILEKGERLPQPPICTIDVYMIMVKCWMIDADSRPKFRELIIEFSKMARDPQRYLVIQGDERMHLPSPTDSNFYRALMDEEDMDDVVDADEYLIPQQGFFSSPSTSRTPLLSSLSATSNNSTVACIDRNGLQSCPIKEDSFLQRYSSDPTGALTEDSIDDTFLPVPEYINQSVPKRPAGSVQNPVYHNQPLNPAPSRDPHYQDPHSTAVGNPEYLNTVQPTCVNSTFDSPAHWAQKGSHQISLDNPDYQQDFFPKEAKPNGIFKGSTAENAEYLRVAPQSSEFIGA
Sequence of Epidermal growth factor receptor (Homo sapiens, UniProt P00533) (P00533 whole entry): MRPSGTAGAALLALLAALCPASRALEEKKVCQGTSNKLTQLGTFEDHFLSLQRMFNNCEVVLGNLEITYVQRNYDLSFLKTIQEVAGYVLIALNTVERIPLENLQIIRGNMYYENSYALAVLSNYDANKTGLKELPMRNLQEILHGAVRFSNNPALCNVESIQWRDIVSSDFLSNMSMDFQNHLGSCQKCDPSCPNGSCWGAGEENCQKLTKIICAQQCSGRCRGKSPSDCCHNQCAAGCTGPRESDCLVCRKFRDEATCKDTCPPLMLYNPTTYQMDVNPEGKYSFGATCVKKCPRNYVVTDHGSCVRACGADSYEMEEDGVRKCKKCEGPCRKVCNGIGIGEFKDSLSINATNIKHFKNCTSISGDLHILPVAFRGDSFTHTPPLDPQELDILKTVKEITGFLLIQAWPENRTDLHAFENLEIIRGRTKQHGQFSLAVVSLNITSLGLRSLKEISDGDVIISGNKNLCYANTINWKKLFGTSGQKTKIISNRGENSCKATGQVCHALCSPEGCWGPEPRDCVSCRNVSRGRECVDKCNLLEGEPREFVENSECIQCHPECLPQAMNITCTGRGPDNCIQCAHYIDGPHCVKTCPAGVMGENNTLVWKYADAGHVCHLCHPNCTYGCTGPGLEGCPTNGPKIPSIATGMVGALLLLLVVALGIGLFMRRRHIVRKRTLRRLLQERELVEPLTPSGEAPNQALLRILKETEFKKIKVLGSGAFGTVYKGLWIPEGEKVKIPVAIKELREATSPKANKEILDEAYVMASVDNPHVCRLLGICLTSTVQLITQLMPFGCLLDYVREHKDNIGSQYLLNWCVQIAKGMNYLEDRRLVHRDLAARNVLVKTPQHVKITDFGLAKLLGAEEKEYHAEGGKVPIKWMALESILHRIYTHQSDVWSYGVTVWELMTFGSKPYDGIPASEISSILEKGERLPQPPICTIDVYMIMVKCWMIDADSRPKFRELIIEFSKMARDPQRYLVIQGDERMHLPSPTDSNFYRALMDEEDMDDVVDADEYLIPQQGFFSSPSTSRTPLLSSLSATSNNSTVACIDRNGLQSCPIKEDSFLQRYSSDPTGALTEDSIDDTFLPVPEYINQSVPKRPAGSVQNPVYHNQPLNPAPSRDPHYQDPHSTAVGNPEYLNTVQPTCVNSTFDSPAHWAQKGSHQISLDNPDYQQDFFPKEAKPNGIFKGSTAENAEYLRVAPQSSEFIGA

Structure (SMILES)	IC50 (cells) [µM]	IC50 (NCI-H1975 [1]) [µM]	IC50 (ASPC1) [µM]	IC50 [2] [µM]	IC50 (A-431) [µM]	IC50 (A549) [µM]	IC50 (NCI-H23) [µM]	IC50 [3] [µM]	other results
C=CC(=O)Nc1cc(Nc2nccc(NC(=O)c3ccc(OC)c(OC)c3)n2)c(OC)cc1N(C)CCN(C)C	12.7	2.65	3.32	0.187	6.55	3.95	15.5	0.123	–
C=CC(=O)Nc1cc(Nc2nccc(NC(=O)c3ccc(C(F)(F)F)cc3)n2)c(OC)cc1N1CCN(C)CC1	19.4	3.42	> 10	0.152	9.2	7.89	9.2	0.0279	–
C=CC(=O)Nc1cc(Nc2nccc(NC(=O)c3ccc(OC)c(OC)c3)n2)c(OC)cc1N(C)C	–	2.15	–	0.149	18.2	–	–	0.0402	–
C=CC(=O)Nc1cc(Nc2nccc(NC(=O)c3ccc(OC)c(OC)c3)n2)c(OC)cc1N1CCC(C(N)=O)CC1	> 40	1.46	> 10	0.128	9.45	4.47	> 16	0.0547	–
COc1cc2ncnc(Nc3ccc(F)c(Cl)c3)c2cc1OCCCN1CCOCC1 [GEFITINIB]	–	–	–	–	–	–	–	–	viability at 0.1 µM (NCI-H1975 [4]): 89.9%; viability at 1 µM (NCI-H1975 [5]): 84.3%; viability at 10 µM (NCI-H1975 [6]): 32.7%; viability at 1 µM (NCI-H1975 [7]): 63.2%; viability at 10 µM (NCI-H1975 [8]): 18.7%; viability at 10 µM (NCI-H1975 [9]): 48.7%; viability at 0.1 µM (NCI-H1975 [10]): 93.5%; viability at 1 µM (NCI-H1975 [11]): 90.6%; viability at 0.1 µM (NCI-H1975 [12]): 97.6%
C=CC(=O)Nc1cc(Nc2nccc(NC(=O)c3ccc(OC)c(OC)c3)n2)c(OC)cc1N1CCN(C)CC1	27	1.66	> 10	0.157	11.7	6.82	> 16	0.0126	viability at 0.1 µM (NCI-H1975 [4]): 90.2%; Activity (NCI-H1975 [13]): Active; Activity (NCI-H1975 [14]): Active; viability at 1 µM (NCI-H1975 [5]): 74.8%; viability at 10 µM (NCI-H1975 [6]): 11.8%; Activity (NCI-H1975 [15]): Active; viability at 1 µM (NCI-H1975 [7]): 52.8%; viability at 10 µM (NCI-H1975 [8]): 5.8%; Activity (NCI-H1975 [16]): Active; Activity (NCI-H1975 [17]): Active; viability at 10 µM (NCI-H1975 [9]): 41.4%; viability at 0.1 µM (NCI-H1975 [10]): 91.6%; viability at 1 µM (NCI-H1975 [11]): 85.4%; viability at 0.1 µM (NCI-H1975 [12]): 93.8%
C=CC(=O)Nc1cc(Nc2nccc(NC(=O)c3ccccc3)n2)c(OC)cc1N(C)C	–	> 20	–	–	> 20	–	–	–	–
C=CC(=O)Nc1cc(Nc2nccc(NC(=O)c3cccc(OC)c3)n2)c(OC)cc1N(C)CCN(C)C	12.3	1.16	3.4	0.153	4.16	3	11.8	0.059	–
C=CC(=O)Nc1cc(Nc2nccc(-c3cn(C)c4ccccc34)n2)c(OC)cc1N(C)CCN(C)C [OSIMERTINIB]	> 40	[…]	3.98	–	[…]	3.24	–	–	Activity (NCI-H1975 [4]): 77.2%; Activity (NCI-H1975 [5]): 59%; Activity (NCI-H1975 [6]): 1.71%; Activity (NCI-H1975 [7]): 33.5%; Activity (NCI-H1975 [8]): 1.42%; Activity (NCI-H1975 [9]): 3.68%; Activity (NCI-H1975 [10]): 83.6%; Activity (NCI-H1975 [11]): 78.6%; Activity (NCI-H1975 [12]): 87.1%
C=CC(=O)Nc1cc(Nc2nccc(NC(=O)c3ccc(C(F)(F)F)cc3)n2)c(OC)cc1N1CCC(C(N)=O)CC1	–	15.7	–	0.127	> 20	–	–	0.0653	–
C=CC(=O)Nc1cc(Nc2nccc(NC(=O)c3ccccc3)n2)c(OC)cc1N(C)CCN(C)C	15.1	1.34	3.58	0.318	1.06	1.74	> 16	0.143	–
C=CC(=O)Nc1cc(Nc2nccc(NC(=O)c3ccc(C(F)(F)F)cc3)n2)c(OC)cc1N(C)CCN(C)C	12.9	3.26	8.03	0.109	7.24	9.88	7.98	0.0465	–
C=CC(=O)Nc1cc(Nc2nccc(NC(=O)c3cccc(OC)c3)n2)c(OC)cc1N1CCC(C(N)=O)CC1	–	11.5	–	0.0505	13.1	–	–	0.0326	–
C=CC(=O)Nc1cc(Nc2nccc(NC(=O)c3ccccc3)n2)c(OC)cc1N1CCN(C)CC1	23.9	1.42	> 10	0.156	3.94	5.97	> 16	0.121	–
C=CC(=O)Nc1cc(Nc2nccc(NC(=O)c3ccccc3)n2)c(OC)cc1N1CCC(C(N)=O)CC1	–	> 20	–	0.181	15.5	–	–	0.000587	–
C=CC(=O)Nc1cc(Nc2nccc(NC(=O)c3cccc4ccccc34)n2)c(OC)cc1N1CCN(C)CC1	18.9	1.09	6.6	0.134	7.75	6.77	10.6	0.0333	–
C=CC(=O)Nc1cc(Nc2nccc(NC(=O)c3cccc(OC)c3)n2)c(OC)cc1N1CCN(C)CC1	2.5	4.23	> 10	0.147	1.59	6.45	15.9	0.055	–
